Laboratory results: patent US8197859B2, “Lipolysis stimulator” (Kao Corporation, priority 2006, dated 2012)

How the values were obtained:
Format in all cases: cell-based, rat (male Wistar)
[1] = tested on: free adipocytes from abdominal subcutaneous adipose tissue; test: Test Example 3: lipolysis-stimulating activity (free glycerol) in free adipocytes with norepinephrine; Huang Hua Cai extract and aminophylline; conditions: Rattus norvegicus, Adipocyte, aminophylline singly, 90 nM norepinephrine, control = 100%
Method: (§1) Specifically, free adipocytes were recovered from the abdominal subcutaneous adipose tissue of each of one to three male Wistar rats (each having a body weight of 170 to 230 g) by use of a collagenase solution.
(§2) The free adipocytes were incubated at 37° C. for 2 hours in a Hanks buffer solution containing bovine serum albumin and 90 nM norepinephrine (reaction mixture) to which each test substance had been added. The resultant free glycerol was assayed through an enzymatic method (Free Glycerol Reagent, product of Sigma-Aldrich).
(§3) As a control, adipocytes were incubated in the same buffer containing only norepinephrine but no test substance.
(§4) Lipolysis-stimulating activity was calculated by the following equation, with 100% being a control value. Lipolysis-stimulating activity(%)=100×(free glycerol in each group)/(free glycerol in control group)
The procedure of Test Example 1 was repeated, except that caffeine was changed to aminophylline. The following substances were tested: and two different mixtures of Huang Hua Cai extract and aminophylline (hereinafter referred to as “Huang Hua Cai-aminophylline mixture”), i.e., Huang Hua Cai-aminophylline mixture 1 (Huang Hua Cai extract+1 μg/mL aminophylline), and a Huang Hua Cai-aminophylline mixture 2 (Huang Hua Cai extract+3 μg/mL aminophylline).
Aminophylline employed in the test was a commercial product (Sigma-Aldrich). […]

[2] = tested on: free adipocytes from abdominal subcutaneous adipose tissue; test: Test Example 1: lipolysis-stimulating activity (free glycerol) in free adipocytes with norepinephrine; Huang Hua Cai extract and caffeine; conditions: Rattus norvegicus, Adipocyte, caffeine singly, 90 nM norepinephrine, 37° C., 2 hours, control = 100%
Method: The Rodbell's method (Rodbell, M., J. Biol. Chem., 239, 375 (1964)) was employed. Specifically, free adipocytes were recovered from the abdominal subcutaneous adipose tissue of each of one to three male Wistar rats (each having a body weight of 170 to 230 g) by use of a collagenase solution.
The following substances were tested: the Huang Hua Cai extract (singly), caffeine (singly), and two different mixtures of Huang Hua Cai extract and caffeine (hereinafter referred to as “Huang Hua Cai-caffeine mixture”), i.e., Huang Hua Cai-caffeine mixture 1 (Huang Hua Cai extract+10 μg/mL caffeine), and Huang Hua Cai-caffeine mixture 2 (Huang Hua Cai extract+30 μg/mL caffeine).
as §2
To the reaction mixture, added the Huang Hua Cai extract at the final concentration of 0, 3, 10, 30 and 100 μg/mL, respectively, and caffeine at the final concentration of 0, 10 and 30 μg/mL, respectively. […]
Lipolysis-stimulating activity was calculated by the following equation, with 100% being a control value. […]

[3] = tested on: free adipocytes from abdominal subcutaneous adipose tissue; test: Test Example 2: lipolysis-stimulating activity (free glycerol) in free adipocytes with norepinephrine; Huang Hua Cai extract and theophylline; conditions: Rattus norvegicus, Adipocyte, theophylline singly, 90 nM norepinephrine, control = 100%
Method: as §1, §2, §3, §4
The following substances were tested: the Huang Hua Cai extract (singly), theophylline (singly), and two different mixtures of Huang Hua Cai extract and theophylline (hereinafter referred to as “Huang Hua Cai-theophylline mixture”), i.e., Huang Hua Cai-theophylline mixture 1 (Huang Hua Cai extract+1 μg/mL theophylline), and a Huang Hua Cai-theophylline mixture 2 (Huang Hua Cai extract+3 μg/mL theophylline). […]

Cn1c(=O)c2[nH]cnc2n(C)c1=O [Aminophylline, aminophylline]
activity at 1 µg/mL ([1]; 1 μg/mL): 140%
activity at 3 µg/mL ([1]; 3 μg/mL): 197%

Cn1c(=O)c2c(ncn2C)n(C)c1=O [Caffeine, caffeine]
activity at 10 µg/mL ([2]; 10 μg/mL): 157%
activity at 30 µg/mL ([2]; 30 μg/mL): 207%

Cn1c(=O)c2[nH]cnc2n(C)c1=O [Theophylline, theophylline]
activity at 1 µg/mL ([3]; 1 μg/mL): 142%
activity at 3 µg/mL ([3]; 3 μg/mL): 188%
